In ChEMBL document CHEMBL5316333, “Potent Long-Acting Inhibitors Targeting the HIV-1 Capsid Based on a Versatile Quinazolin-4-one Scaffold” (J Med Chem, 2023):

What was measured:
[1] = tested on: Human immunodeficiency virus 1; experiment: Antiviral activity against HIV-1 NLRep-Rluc infected in human MT2 cells assessed as inhibition of viral growth incubated for 96 hrs by renilla luciferase assay; type: functional, organism-based
[2] = Clearance in Sprague-Dawley rat at 1 mg/kg, iv and measured upto 96 hrs by LC-MS/MS analysis; type: ADME, organism-based; conditions: in vivo
[3] = Human immunodeficiency virus 1, NLRep-Rluc, MT2, 96 h

Row | Compound | EC50 [1, 3] [nM] | clearance [2] [mL/min/kg] | EC50 ([1]; mt2) [nM]
1 | Cn1nc(NS(C)(=O)=O)c2c(Cl)ccc(-n3c([C@H](Cc4cc(F)cc(F)c4)NC(=O)Cn4nc(C(F)F)c5c4C(F)(F)[C@@H]4C[C@H]54)nc4cc(C(C)(C)C)ccc4c3=O)c21 | 0.13 | 19 | –
2 | Cn1nc(NS(C)(=O)=O)c2c(Cl)ccc(-n3c([C@H](Cc4cc(F)cc(F)c4)NC(=O)Cn4nc(C(F)F)c5c4C(F)(F)[C@@H]4C[C@H]54)nc4cc(N5CCCC5)ccc4c3=O)c21 | 0.23 | – | –
3 | Cn1nc(NS(C)(=O)=O)c2c(Cl)ccc(-n3c([C@H](Cc4cc(F)cc(F)c4)NC(=O)Cn4nc(C(F)F)c5c4C(F)(F)[C@@H]4C[C@H]54)nc4cc(N5CCO[C@@H](C(F)(F)F)C5)ccc4c3=O)c21 | 0.081 | – | –
4 | Cn1nc(NS(C)(=O)=O)c2c(Cl)ccc(-n3c([C@H](Cc4cc(F)cc(F)c4)NC(=O)Cn4nc(C(F)F)c5c4C(F)(F)[C@@H]4C[C@H]54)nc4cc(N5C[C@H]6CC[C@@H](C5)O6)ccc4c3=O)c21 | 0.064 | – | –
5 | Cn1nc(NS(C)(=O)=O)c2c(Cl)ccc(-n3c([C@H](Cc4cc(F)cc(F)c4)NC(=O)Cn4nc(C(F)F)c5c4C(F)(F)[C@@H]4C[C@H]54)nc4cc(N5CCCOCC5)ccc4c3=O)c21 | 0.13 | – | –
6 | CCN(CC)c1ccc2c(=O)n(-c3ccc(Cl)c4c(NS(C)(=O)=O)nn(C)c34)c([C@H](Cc3cc(F)cc(F)c3)NC(=O)Cn3nc(C(F)F)c4c3C(F)(F)[C@@H]3C[C@H]43)nc2c1 | 0.2 | – | –
7 | COc1cc(OC)c2c(=O)n(-c3ccc(Cl)c4c(NS(C)(=O)=O)nn(C)c34)c([C@H](Cc3cc(F)cc(F)c3)NC(=O)Cn3nc(C(F)F)c4c3C(F)(F)[C@@H]3C[C@H]43)nc2c1 | 0.064 | 65 | –
8 | Cn1nc(NS(C)(=O)=O)c2c(Cl)ccc(-n3c([C@H](Cc4cc(F)cc(F)c4)NC(=O)Cn4nc(C(F)F)c5c4C(F)(F)[C@@H]4C[C@H]54)nc4cc(F)ccc4c3=O)c21 | 0.041 | 40 | –
9 | C[C@@H]1CN(c2ccc3c(=O)n(-c4ccc(Cl)c5c(NS(C)(=O)=O)nn(C)c45)c([C@H](Cc4cc(F)cc(F)c4)NC(=O)Cn4nc(C(F)F)c5c4C(F)(F)[C@@H]4C[C@H]54)nc3c2)C[C@H](C)N1C | 0.091 | – | –
10 | Cn1nc(NS(C)(=O)=O)c2c(Cl)ccc(-n3c([C@H](Cc4cc(F)cc(F)c4)NC(=O)Cn4nc(C(F)F)c5c4C(F)(F)[C@@H]4C[C@H]54)nc4cc(N5CCC6(CC5)COC6)ccc4c3=O)c21 | 0.13 | – | –
11 | Cn1nc(NS(C)(=O)=O)c2c(Cl)ccc(-n3c([C@H](Cc4cc(F)cc(F)c4)NC(=O)Cn4nc(C(F)F)c5c4C(F)(F)[C@@H]4C[C@H]54)nc4ccc(F)cc4c3=O)c21 | 0.045 | 29 | –
12 | Cn1nc(NS(C)(=O)=O)c2c(Cl)ccc(-n3c([C@H](Cc4cc(F)cc(F)c4)NC(=O)Cn4nc(C(F)F)c5c4C(F)(F)[C@@H]4C[C@H]54)nc4cc(N5CC6(COC6)C5)ccc4c3=O)c21 | 0.064 | 18 | –
13 | Cn1nc(NS(C)(=O)=O)c2c(Cl)ccc(-n3c([C@H](Cc4cc(F)cc(F)c4)NC(=O)Cn4nc(C(F)F)c5c4C(F)(F)[C@@H]4C[C@H]54)nc4cc(Br)ccc4c3=O)c21 | 0.053 | – | –
14 | COc1cccc2c(=O)n(-c3ccc(Cl)c4c(NS(C)(=O)=O)nn(C)c34)c([C@H](Cc3cc(F)cc(F)c3)NC(=O)Cn3nc(C(F)F)c4c3C(F)(F)[C@@H]3C[C@H]43)nc12 | 0.095 | – | –
15 | Cn1nc(NS(C)(=O)=O)c2c(Cl)ccc(-n3c([C@H](Cc4cc(F)cc(F)c4)NC(=O)Cn4nc(C(F)F)c5c4C(F)(F)[C@@H]4C[C@H]54)nc4cc(Cl)ccc4c3=O)c21 | 0.058 | – | –
16 | Cn1nc(NS(C)(=O)=O)c2c(Cl)ccc(-n3c([C@H](Cc4cc(F)cc(F)c4)NC(=O)Cn4nc(C(F)F)c5c4C(F)(F)[C@@H]4C[C@H]54)nc4cc(N5C6COCC5COC6)ccc4c3=O)c21 | 0.24 | – | –
17 | COc1ccc2nc([C@H](Cc3cc(F)cc(F)c3)NC(=O)Cn3nc(C(F)F)c4c3C(F)(F)[C@@H]3C[C@H]43)n(-c3ccc(Cl)c4c(NS(C)(=O)=O)nn(C)c34)c(=O)c2c1 (stereo in doubt; 13c) | – | – | 38
18 | COC1CCN(c2ccc3c(=O)n(-c4ccc(Cl)c5c(NS(C)(=O)=O)nn(C)c45)c([C@H](Cc4cc(F)cc(F)c4)NC(=O)Cn4nc(C(F)F)c5c4C(F)(F)[C@@H]4C[C@H]54)nc3c2)CC1 | 0.12 | – | –
19 | CO[C@@H]1CCN(c2ccc3c(=O)n(-c4ccc(Cl)c5c(NS(C)(=O)=O)nn(C)c45)c([C@H](Cc4cc(F)cc(F)c4)NC(=O)Cn4nc(C(F)F)c5c4C(F)(F)[C@@H]4C[C@H]54)nc3c2)C1 | 0.058 | – | –
20 | Cn1nc(NS(C)(=O)=O)c2c(Cl)ccc(-n3c([C@H](Cc4cc(F)cc(F)c4)NC(=O)Cn4nc(C(F)F)c5c4C(F)(F)[C@@H]4C[C@H]54)nc4cc(N5CCS(=O)(=O)CC5)ccc4c3=O)c21 | 0.47 | – | –
21 | COc1ccc2c(=O)n(-c3ccc(Cl)c4c(NS(C)(=O)=O)nn(C)c34)c([C@H](Cc3cc(F)cc(F)c3)NC(=O)Cn3nc(C(F)F)c4c3C(F)(F)[C@@H]3C[C@H]43)nc2c1F | 0.13 | 11 | –
22 | Cn1nc(NS(C)(=O)=O)c2c(Cl)ccc(-n3c([C@H](Cc4cc(F)cc(F)c4)NC(=O)Cn4nc(C(F)F)c5c4C(F)(F)[C@@H]4C[C@H]54)nc4cc(C(C)(F)F)ccc4c3=O)c21 | 0.078 | 2.8 | –
23 | Cn1nc(NS(C)(=O)=O)c2c(Cl)ccc(-n3c([C@H](Cc4cc(F)cc(F)c4)NC(=O)Cn4nc(C(F)F)c5c4C(F)(F)[C@@H]4C[C@H]54)nc4cc(N5CC(C)(C)OC(C)(C)C5)ccc4c3=O)c21 | 0.12 | – | –
24 | Cn1nc(NS(C)(=O)=O)c2c(Cl)ccc(-n3c([C@H](Cc4cc(F)cc(F)c4)NC(=O)Cn4nc(C(F)F)c5c4C(F)(F)[C@@H]4C[C@H]54)nc4cc(S(C)(=O)=O)ccc4c3=O)c21 | 0.15 | 78 | –
25 | Cn1nc(NS(C)(=O)=O)c2c(Cl)ccc(-n3c([C@H](Cc4cc(F)cc(F)c4)NC(=O)Cn4nc(C(F)F)c5c4C(F)(F)[C@@H]4C[C@H]54)nc4cc(C5CC5)ccc4c3=O)c21 | 0.14 | 4.3 | –
26 | Cn1nc(NS(C)(=O)=O)c2c(Cl)ccc(-n3c([C@H](Cc4cc(F)cc(F)c4)NC(=O)Cn4nc(C(F)F)c5c4C(F)(F)[C@@H]4C[C@H]54)nc4cc(N5CCC5)ccc4c3=O)c21 | 0.11 | – | –
27 | Cn1nc(NS(C)(=O)=O)c2c(Cl)ccc(-n3c([C@H](Cc4cc(F)cc(F)c4)NC(=O)Cn4nc(C(F)F)c5c4C(F)(F)[C@@H]4C[C@H]54)nc4cc(C(C)(C)O)ccc4c3=O)c21 | 0.15 | 26 | –
28 | Cn1nc(NS(C)(=O)=O)c2c(Cl)ccc(-n3c([C@H](Cc4cc(F)cc(F)c4)NC(=O)Cn4nc(C(F)F)c5c4C(F)(F)[C@@H]4C[C@H]54)nc4cccc(F)c4c3=O)c21 | 0.13 | – | –
29 | Cn1nc(NS(C)(=O)=O)c2c(Cl)ccc(-n3c([C@H](Cc4cc(F)cc(F)c4)NC(=O)Cn4nc(C(F)F)c5c4C(F)(F)[C@@H]4C[C@H]54)nc4cc(N5CCOCC5=O)ccc4c3=O)c21 | 0.11 | – | –
30 | Cn1nc(NS(C)(=O)=O)c2c(Cl)ccc(-n3c([C@H](Cc4cc(F)cc(F)c4)NC(=O)Cn4nc(C(F)F)c5c4C(F)(F)[C@@H]4C[C@H]54)nc4cc(N5[C@@H]6CC[C@H]5COC6)ccc4c3=O)c21 | 0.057 | – | –
